Consider 19 compounds from EP0097202A1, “Hydrazinopyridazine compound, process for production thereof, and use thereof as medicament” (TEIKOKU HORMONE MFG. CO., LTD., priority 1982, dated 1984).

Like-named read-outs stand apart in the source and are kept apart here.

Holding throughout (format): in vivo, male Wistar rats
One assay has as its target T1, β1-adrenoceptors (Rattus norvegicus, UniProt P18090).
T1 construct: Experiments were done using male Wistar rats weighing between 300 and 400 g, anesthetized with sodium pentobarbital; from tissue; host or cells: whole animal (anesthetized male Wistar rats), cardiac response in vivo
Nature of the assay: β-adrenoceptor blocking activity: inhibition of the isoproterenol-induced increase in heart rate in anesthetized rats. As to conditions: iv, 0.05 h. The protocol:
(§1) Experiments were done using male Wistar rats weighing between 300 and 400 g, anesthetized with sodium pentobarbital (60 mg/kg i.p.). The blood pressure was directly measured by connecting a cannula inserted in the femoral artery to a pressure transducer and the heart rate was calculated from the pulse waves of the blood pressure tracings. Each value shown here was obtained from three animals. The test compounds were individually dissolved in physiological saline solution or a 0.01 N aqueous solution of hydrochloric acid.
The increased heart rate before injection of the test compound was represented by H1. Three minutes after i.v. injection of the test compound, isoproterenol (0.1 µg/kg i.v.) was again administered and then the change in heart rate was measured. The maximum increase in heart rate after injection of the test compound was designated as H2. From these values, the percent inhibition of the change in heart rate was calculated in accordance with the following equation.
Percent inhibition of the heart rate [formula]
(§2) By repeating the procedure mentioned above at various doses of the test compounds, dose-response curves were prepared.

Another assay concerns β2-adrenoceptor. Put plainly: β-adrenoceptor blocking activity: inhibition of the isoproterenol-induced fall in blood pressure in anesthetized rats. As to conditions: 50 % inhibition of fall in blood pressure by isoproterenol 0.1 µg/kg i.v. The protocol:
as §1, §2

The nature of assay [1]: vasodilating activity (hypotensive activity): maximum fall in blood pressure in anesthetized rats. As to conditions: maximum fall in blood pressure during 40 minutes after 1 mg/kg i.v., three animals. How it is done: as §1
Each test compound dissolved in physiological saline solution or 0.01 N hydrochloric acid was intravenously injected into rats in a fixed dose of 1 mg/kg and the blood pressure was continuously monitored for 40 minutes. The maximum fall in blood pressure during this period was determined and taken as the hypotensive activity of each compound.

[2] abbreviates: read-out: β-adrenoceptor blocking action ID50.

T1 sequence (P18090 whole entry): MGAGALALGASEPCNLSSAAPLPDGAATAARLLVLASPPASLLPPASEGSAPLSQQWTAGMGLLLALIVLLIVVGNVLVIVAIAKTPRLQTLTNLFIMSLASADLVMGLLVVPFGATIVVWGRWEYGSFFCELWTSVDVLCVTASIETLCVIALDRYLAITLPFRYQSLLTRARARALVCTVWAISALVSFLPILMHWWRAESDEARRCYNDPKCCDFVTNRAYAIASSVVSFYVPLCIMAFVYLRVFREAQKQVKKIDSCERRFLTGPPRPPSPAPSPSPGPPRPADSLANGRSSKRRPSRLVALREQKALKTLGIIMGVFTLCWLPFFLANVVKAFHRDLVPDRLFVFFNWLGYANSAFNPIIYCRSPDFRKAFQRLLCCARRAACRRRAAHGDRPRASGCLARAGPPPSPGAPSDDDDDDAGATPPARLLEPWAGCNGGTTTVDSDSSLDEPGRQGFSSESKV

As to `CC(C)(COc1ccc(NN)nn1)NCC(O)COc1ccccc1Cl` (stereo not shown) [B, 1-(2-chlorophenoxy)-3-[1,1-dimethyl-2-(3-hydrozino-6-pyridazinyloxy)ethylamino]-2-propanol], the ED50 on β1-adrenoceptors (setting [2]) stood at 0.008 mg/kg. In addition, in the assay on β2-adrenoceptor, the “β-adrenoceptor blocking action ID50 β2” value amounted to 0.23 mg/kg i.v. Moreover, the Hypotensive action result in assay [1] was “+++ (35 mmHg or more)”.
As for `Cc1cccc(OCC(O)CNC(C)(C)COc2ccc(NN)nn2)c1Cl` (stereo not shown) [F, 1-(2-chloro-3-methylphenoxy)-3-[1,1-dimethyl-2-(3-hydrazino-6-pyridazinyloxy)ethylamino]-2-propanol], the ED50 on β1-adrenoceptors (setting [2]) was 0.08 mg/kg. For the same compound, in assay [1], the Hypotensive action result is “++ (a fall in blood pressure of 25 to 34 mmHg)”.
In the same order, the values of `CC(C)=NNc1ccc(OCC(C)(C)NCC(O)COc2cc(C)ccc2Cl)nn1` (stereo not shown) [G, 1-(2-chloro-5-methylphenoxy)-3-[1,1-dimethyl-2-(3-isopropylidenehydrazino-6-pyridazinyloxy)ethylamino]-2-propanol] are 0.15 mg/kg and “++ (a fall in blood pressure of 25 to 34 mmHg)”.
Regarding `CCOCc1ccccc1OCC(O)CNC(C)(C)COc1ccc(NN)nn1` (stereo not shown) [M, 1-(2-ethoxymethylphenoxy)-3-[1;1-dimethyl-2-(3-hydrazino-6-pyridazinyloxy)ethylamino]-2-propanol], the ED50 on β1-adrenoceptors (setting [2]) is 0.06 mg/kg. The Hypotensive action result in assay [1] is “++ (a fall in blood pressure of 25 to 34 mmHg)”.
The matching figures for `CCOCCc1ccccc1OCC(O)CNC(C)(C)COc1ccc(NN)nn1` (stereo not shown) [O]: 0.16 mg/kg and “++ (a fall in blood pressure of 25 to 34 mmHg)”.
In the same order, the values of `Cc1ccccc1OCC(O)CNC(C)(C)CSc1ccc(NN)nn1` (stereo not shown) [Q, 1-(2-methylphenoxy)-3-[1,1-dimethyl-2-(3-hydrazino-6-pyridazinylthio)ethylamino]-2-propanol] are 0.04 mg/kg and “++ (a fall in blood pressure of 25 to 34 mmHg)”.
The matching figures for `COCCc1ccccc1OCC(O)CNC(C)(C)COc1ccc(NN)nn1` (stereo not shown) [N, 1-[2-(2-methoxyethyl)phenoxy]-3-[1,1-dimethyl-2-(3-hydrazino-6-pyridazinyloxy)ethylamino]-2-propanol]: 0.08 mg/kg and “+++ (35 mmHg or more)”.
In the case of `CCc1ccccc1OCC(O)CNC(C)(C)COc1ccc(NN)nn1` (stereo not shown) [D, 1-(2-ethylphenoxy)-3-[1,1-dimethyl-2-(3-hydrazino-6-pyridazinyloxy)ethylamino]-2-propanol], the ED50 at β1-adrenoceptors (setting [2]) was found to be 0.2 mg/kg. Also, the Hypotensive action entry in assay [1] is given as “+++ (35 mmHg or more)”.
Turning to `Cc1ccccc1OCC(O)CNC(C)(C)COc1ccc(NN)nn1` (stereo not shown) [C, 1-(2-methylphenoxy)-3-[1,1-dimethyl-2-(3-hydrazino-6-pyridazinyloxy)ethylamino]-2-propanol], on β1-adrenoceptors (setting [2]), the ED50 worked out at 0.015 mg/kg. In addition, the “β-adrenoceptor blocking action ID50 β2” value with β2-adrenoceptor worked out at 0.45 mg/kg i.v. In addition, the Hypotensive action entry in assay [1] is on record as “+++ (35 mmHg or more)”.
In the same order, the values of `Cc1ccc(C#N)c(OCC(O)CNC(C)(C)COc2ccc(NN)nn2)c1` (stereo not shown) [K, 1-(2-cyano-5-methylphenoxy)-3-[1,1-dimethyl-2-(3-hydrazino-6-pyridazinyloxy)ethylamino]-2-propanol] are 0.05 mg/kg, 0.1 mg/kg i.v and “+++ (35 mmHg or more)”.
The matching figures for `CC(C)(COc1ccc(NN)nn1)NCC(O)COc1ccccc1C#N` (stereo not shown) [I, 1-(2-cyanophenoxy)-3-[1,1-dimethyl-2-(3-hydrazino-6-pyridazinyloxy)ethylamino]-2-propanol]: 0.02 mg/kg, 0.1 mg/kg i.v and “+++ (35 mmHg or more)”.
Regarding `CCCc1ccccc1OCC(O)CNC(C)(C)COc1ccc(NN)nn1` (stereo not shown) [E, 1-(2-propylphenoxy)-3-[1,1-dimethyl-2-(3-hydrazino-6-pyridazinyloxy)ethylamino]-2-propanol], the ED50 on β1-adrenoceptors (setting [2]) came out at 0.2 mg/kg. For the same compound, the Hypotensive action entry in assay [1] is recorded as “++ (a fall in blood pressure of 25 to 34 mmHg)”.
In the same order, the values of `CC(C)(COc1ccc(NN)nn1)NCC(O)COc1ccccc1` (stereo not shown) [A, 1-penoxy-3-[1,1-dimethyl-2-(3-hydrozino-6-pyridazinyloxy)ethylamino]-2-propanol] are 0.04 mg/kg and “++ (a fall in blood pressure of 25 to 34 mmHg)”.
Take `CC(C)NCC(O)COc1ccc(CC(N)=O)cc1` (stereo not shown) [Atenolol, reference compound]: the ED50 on β1-adrenoceptors (read-out: β-adrenoceptor blocking action ID50 β1) amounted to 0.05 mg/kg. Besides, the “β-adrenoceptor blocking action ID50 β2” value in the assay with β2-adrenoceptor stood at 1.5 mg/kg i.v.
Turning to `C#Cc1ccccc1OCC(O)CNC(C)(C)COc1ccc(NN)nn1` (stereo not shown) [R, 1-(2-ethinylphenoxy)-3-[1,1-dimethyl-2-(3-hydrazino-6-pyridazinyloxy)ethylamino]-2-propanol], the ED50 at β1-adrenoceptors (setting [2]) came to 0.02 mg/kg. Also, the “β-adrenoceptor blocking action ID50 β2” value in the assay on β2-adrenoceptor is “No antagonistic action at 0.1”. In assay [1], the Hypotensive action result was “+++ (35 mmHg or more)”.
Turning to `Cc1ccc(Cl)c(OCC(O)CNC(C)(C)COc2ccc(NN)nn2)c1` (stereo not shown) [H, 1-(2-chloro-5-methylphenoxy)-3-[1,1-dimethyl-2-(3-hydrazino-6-pyridazinyloxy)ethylamino]-2-propanol], the ED50 on β1-adrenoceptors (setting [2]) amounted to 0.15 mg/kg. Further, the Hypotensive action result in assay [1] is listed as “++ (a fall in blood pressure of 25 to 34 mmHg)”.
For `CC(C)(COc1ccc(NN)nn1)NCC(O)COc1cc(Cl)ccc1C#N` (stereo not shown) [J, 1-(2-cyano-5-chlorophenoxy)-3-[1,1-dimethyl-2-(3-hydrazino-6-pyridazinyloxy)ethylamino]-2-propanol], on β1-adrenoceptors (setting [2]), the ED50 was 0.12 mg/kg. In addition, the Hypotensive action result in assay [1] is listed as “++ (a fall in blood pressure of 25 to 34 mmHg)”.
The matching figures for `COCc1ccccc1OCC(O)CNC(C)(C)COc1ccc(NN)nn1` (stereo not shown) [L, 1-(2-methoxymethylphenoxy)-3-[1,1-dimethyl-2-(3-hydrazino-6-pyridazinyloxy)ethylamino]-2-propanol]: 0.03 mg/kg and “+++ (35 mmHg or more)”.
In the same order, the values of `C=CCOc1ccccc1OCC(O)CNC(C)(C)COc1ccc(NN)nn1` (stereo not shown) [P, 1-(2-allyloxyphenoxy)-3-[1,1-dimethyl-2-(3-hydrazino-6-pyridazinyloxy)ethylamino]-2-propanol] are 0.1 mg/kg and “++ (a fall in blood pressure of 25 to 34 mmHg)”.
